Reference: patent US4337199A, “Antibiotic β-lactam compounds, production thereof, and their use as antimicrobial agent” (Sanraku-Ocean Co., Ltd., priority 1978, dated 1982)
In brackets after ≈: the same amount, converted by molar mass.

How the values were obtained:
Alcaligenes faecalis A 1 = experiment: minimum inhibitory concentration, agar dilution assay; assay type: cell-based; settings: A1, agar dilution, 35° C., 20 hours, read-out: minimum inhibitory concentration
Method: (§1) The antibiotic activities shown in Tables I-1 to I-8 above were determined in the following manner.
(§2) The minimum inhibitory concentrations of the compounds of formula (I-a-1) or (I-b-1) in Tables I-1 to I-7 and the known compounds in Table I-8 on the various microorganisms shown in the above tables were measured by an agar dilution assay method using a brain heart infusion agar medium "Difco" (a product of Difco Laboratories Inc.)
(§3) A sample of the test compound was dissolved in sterile distilled water and diluted to prepare a two-fold dilution series of the compound solution. In a petri plate of 9 cm diameter, 1 ml of the compound solution was added to 9 ml of molten sterile heart infusion agar medium (Difco Laboratories Inc.) at about 60° C. to prepare the compound-containing agar plate. An overnight culture of each test organism indicated in the above table which was prepared by stationary cultivation in Trypto-Soy broth (Eiken Chemi. Co., Ltd.) at 35° C. for 18 to 20 hours, was diluted with the Trypto-Soy broth to give approximately 10^8 cells/ml and the diluted inoculum was inoculated onto the compound-containing agar plates. After cultivating the plates at 35° C. for 20 hours, the growth of the organism was observed. The minimum concentration of the compound at which no growth of the microorganism was noted was determined, and defined as the minimum inhibitory concentration of the test compound.

[1] = system: Bacillus subtilis ATCC 6633; experiment: as above; assay type: cell-based; settings: ATCC6633, agar dilution, 35° C., 20 hours, read-out: minimum inhibitory concentration
Method: as §1, §2, §3

[2] = system: Citrobacter freundii GN 346; experiment: as above; assay type: cell-based; settings: GN346, agar dilution, 35° C., 20 hours, read-out: minimum inhibitory concentration
Method: as §1, §2, §3

[3] = system: Comamonas terrigena B-996; experiment: as above; assay type: cell-based; settings: B996, agar dilution, 35° C., 20 hours, read-out: minimum inhibitory concentration
Method: as §1, §2, §3

[4] = system: Enterobacter aerogenes E19; experiment: as above; assay type: cell-based; settings: Klebsiella aerogenes, E19; agar dilution, 35° C., 20 hours; read-out: minimum inhibitory concentration
Method: as §1, §2, §3

Enterobacter cloacae 45 = experiment: as above; assay type: cell-based; settings: Enterobacter cloacae, 45; agar dilution, 35° C., 20 hours; read-out: minimum inhibitory concentration
Method: as §1, §2, §3

Enterobacter sp. E8 = experiment: as above; assay type: cell-based; settings: SP.E8, agar dilution, 35° C., 20 hours, read-out: minimum inhibitory concentration
Method: as §1, §2, §3

Escherichia coli K-12 = experiment: as above; assay type: cell-based; settings: K12, agar dilution, 35° C., 20 hours, read-out: minimum inhibitory concentration
Method: as §1, §2, §3

Escherichia coli RGN 823 = experiment: as above; assay type: cell-based; settings: RGN823, agar dilution, 35° C., 20 hours, read-out: minimum inhibitory concentration
Method: as §1, §2, §3

[5] = system: Klebsiella pneumoniae K-13; experiment: as above; assay type: cell-based; settings: K13, agar dilution, 35° C., 20 hours, read-out: minimum inhibitory concentration
Method: as §1, §2, §3

Proteus mirabilis P6 = experiment: as above; assay type: cell-based; settings: P6, agar dilution, 35° C., 20 hours, read-out: minimum inhibitory concentration
Method: as §1, §2, §3

Proteus rettgeri P7 = experiment: as above; assay type: cell-based; settings: Providencia rettgeri, P7; agar dilution, 35° C., 20 hours; read-out: minimum inhibitory concentration
Method: as §1, §2, §3

Proteus sp. P22 = experiment: as above; assay type: cell-based; settings: agar dilution, 35° C., 20 hours; read-out: minimum inhibitory concentration
Method: as §1, §2, §3

Proteus vulgaris GN76 = experiment: as above; assay type: cell-based; settings: GN76, agar dilution, 35° C., 20 hours, read-out: minimum inhibitory concentration
Method: as §1, §2, §3

Providencia sp. P8 = experiment: as above; assay type: cell-based; settings: SP.P8, agar dilution, 35° C., 20 hours, read-out: minimum inhibitory concentration
Method: as §1, §2, §3

[6] = system: Pseudomonas aeruginosa IFO3445; experiment: as above; assay type: cell-based; settings: IFO3445, agar dilution, 35° C., 20 hours, read-out: minimum inhibitory concentration
Method: as §1, §2, §3

[7] = system: Pseudomonas aeruginosa NCTC10490; experiment: as above; assay type: cell-based; settings: NCTC10490, agar dilution, 35° C., 20 hours, read-out: minimum inhibitory concentration
Method: as §1, §2, §3

Sarcina lutea = experiment: as above; assay type: cell-based; settings: Micrococcus luteus; agar dilution, 35° C., 20 hours; read-out: minimum inhibitory concentration
Method: as §1, §2, §3

Serratia marcescens S18 = experiment: as above; assay type: cell-based; settings: S18, agar dilution, 35° C., 20 hours, read-out: minimum inhibitory concentration
Method: as §1, §2, §3

Serratia marcescens T55 = experiment: as above; assay type: cell-based; settings: T55, agar dilution, 35° C., 20 hours, read-out: minimum inhibitory concentration
Method: as §1, §2, §3

[8] = system: Staphylococcus aureus FDA 209P; experiment: as above; assay type: cell-based; settings: FDA209P, agar dilution, 35° C., 20 hours, read-out: minimum inhibitory concentration
Method: as §1, §2, §3

[9] = system: Staphylococcus aureus Russell; experiment: as above; assay type: cell-based; settings: agar dilution, 35° C., 20 hours, read-out: minimum inhibitory concentration
Method: as §1, §2, §3

[10] = system: Staphylococcus aureus Smith; experiment: as above; assay type: cell-based; settings: agar dilution, 35° C., 20 hours, read-out: minimum inhibitory concentration
Method: as §1, §2, §3

[11] = system: Staphylococcus epidermidis; experiment: as above; assay type: cell-based; settings: agar dilution, 35° C., 20 hours, read-out: minimum inhibitory concentration
Method: as §1, §2, §3

[12] = system: Staphylococcus aureus Smith strain; experiment: Infection treating test; assay type: in vivo, Staphylococcus aureus (in ddy male mice); settings: sc, 2 h, mice infected intraperitoneally, 5×10^5 cells per mouse, subcutaneous, two hours after infection, read-out: CD50 (the source's name)
Method: The in vivo activities of the compounds of formula (I-d) were determined by using mice (five per group, ddy male mice, Shizuoka) which had been intraperitoneally infected with Staphylococcus aureus Smith strain in an amount of 5×10^5 cells per mouse. Two hours after the infection, an injection containing a sodium salt of each of the compounds of formula (I-d) was subcutaneously administered to the mice.

[13] = system: Gram-positive and Gram-negative bacteria; experiment: antibiotic activity (antimicrobial spectrum); assay type: cell-based; settings: comparison in words
Method: as §2, §3

Compound	MIC (Alcaligenes faecalis A 1) [µg/mL]	MIC [1] [µg/mL]	MIC [2] [µg/mL]	MIC [3] [µg/mL]	MIC [4] [µg/mL]	MIC (Enterobacter cloacae 45) [µg/mL]	MIC (Enterobacter sp. E8) [µg/mL]	MIC (Escherichia coli K-12) [µg/mL]	MIC (Escherichia coli RGN 823) [µg/mL]	MIC [5] [µg/mL]	MIC (Proteus mirabilis P6) [µg/mL]	MIC (Proteus rettgeri P7) [µg/mL]	MIC (Proteus sp. P22) [µg/mL]	MIC (Proteus vulgaris GN76) [µg/mL]	MIC (Providencia sp. P8) [µg/mL]	MIC [6] [µg/mL]	MIC [7] [µg/mL]	MIC (Sarcina lutea) [µg/mL]	MIC (Serratia marcescens S18) [µg/mL]	MIC (Serratia marcescens T55) [µg/mL]	further results
CC(O)C1C(=O)N2C(C(=O)O)=C(Sc3ncccn3)CC12 (stereo not drawn) [Example 64, 5,6-cis-3-(2-Pyrimidinylthio)-6-(1-hydroxyethyl)-7-oxo-1-azabicyclo[3.2.0]hept-2-ene-2-carboxylic acid]	0.05 (≈ 0.163 µM)	< 0.007	6.25 (≈ 20.3 µM)	< 0.007	3.13 (≈ 10.2 µM)	12.5 (≈ 40.7 µM)	0.013 (≈ 0.0423 µM)	0.1 (≈ 0.325 µM)	1.56 (≈ 5.08 µM)	25 (≈ 81.3 µM)	0.78 (≈ 2.54 µM)	1.56 (≈ 5.08 µM)	25 (≈ 81.3 µM)	6.25 (≈ 20.3 µM)	0.2 (≈ 0.651 µM)	25 (≈ 81.3 µM)	25 (≈ 81.3 µM)	< 0.007	12.5 (≈ 40.7 µM)	12.5 (≈ 40.7 µM)	MIC [8]: < 0.007 µg/mL; MIC [9]: 0.013 µg/mL (≈ 0.0423 µM); MIC [10]: 0.025 µg/mL (≈ 0.0813 µM); MIC [11]: 0.025 µg/mL (≈ 0.0813 µM); ED50 [12]: 0.25 mg/kg
CCC1C(=O)N2C(C(=O)O)=C(SCCNC(C)=O)CC12 (centres unmarked) [PS-5, 3-(2-acetaminothylthio)-6-ethyl-7-oxo-1-azabicyclo-[3.2.0]hept-2-ene-2-carboxylic acid, reference compound]	0.39 (≈ 1.31 µM)	0.1 (≈ 0.335 µM)	3.13 (≈ 10.5 µM)	0.013 (≈ 0.0436 µM)	3.13 (≈ 10.5 µM)	6.25 (≈ 20.9 µM)	1.56 (≈ 5.23 µM)	1.56 (≈ 5.23 µM)	3.13 (≈ 10.5 µM)	6.25 (≈ 20.9 µM)	6.25 (≈ 20.9 µM)	12.5 (≈ 41.9 µM)	25 (≈ 83.8 µM)	12.5 (≈ 41.9 µM)	3.13 (≈ 10.5 µM)	25 (≈ 83.8 µM)	12.5 (≈ 41.9 µM)	0.05 (≈ 0.168 µM)	6.25 (≈ 20.9 µM)	6.25 (≈ 20.9 µM)	MIC [8]: 0.025 µg/mL (≈ 0.0838 µM); MIC [9]: 0.1 µg/mL (≈ 0.335 µM); MIC [10]: 0.1 µg/mL (≈ 0.335 µM); MIC [11]: 0.1 µg/mL (≈ 0.335 µM); antibiotic activity (in words) [13]: better antibiotic activity than cephazolin (CEZ)
